Test results published in PubChem BioAssay AID720562 (Broad Institute, 2013).
Calls of active or inactive are those of the source.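 The calls were made as follows: active = fitted curve rises past 40% activation at or below the highest valid tested dose; inconclusive = flat fit between 30% and 70%, or poor curve fit; inactive = the rest, including signal falling instead of rising.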

Target: Luciferin 4-monooxygenase (Photinus pyralis) (UniProt P08659)
Test: compounds altering purified luciferase luminescence – biochemical, CellTiter-Glo luminescence, dry powder samples, counter-screen for NLG project, dose response (AID 720562)
Conditions: 1 h

Luciferin 4-monooxygenase (Photinus pyralis), sequence (P08659 whole entry, looked up): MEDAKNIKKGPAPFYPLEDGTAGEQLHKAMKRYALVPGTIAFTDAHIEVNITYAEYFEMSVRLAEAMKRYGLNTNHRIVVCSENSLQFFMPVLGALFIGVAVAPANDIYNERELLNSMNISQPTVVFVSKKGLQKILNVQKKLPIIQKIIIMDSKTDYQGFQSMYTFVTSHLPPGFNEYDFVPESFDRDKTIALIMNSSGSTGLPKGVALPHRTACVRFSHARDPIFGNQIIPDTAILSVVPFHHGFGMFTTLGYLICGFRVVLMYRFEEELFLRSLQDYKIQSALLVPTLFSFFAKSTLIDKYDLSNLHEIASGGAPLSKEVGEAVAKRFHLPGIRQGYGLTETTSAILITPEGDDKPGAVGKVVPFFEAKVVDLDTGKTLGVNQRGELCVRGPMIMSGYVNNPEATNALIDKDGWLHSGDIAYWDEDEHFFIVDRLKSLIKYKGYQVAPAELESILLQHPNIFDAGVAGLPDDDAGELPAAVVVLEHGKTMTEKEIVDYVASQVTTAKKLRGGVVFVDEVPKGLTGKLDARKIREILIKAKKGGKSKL

Compound	AC40
COc1ccc2c(COC(=O)c3cccc(S(=O)(=O)NCC(C)C)c3)cc(=O)oc2c1	1.49 µM
CCN(CC)CCOc1ccc2c(c1)C(=NNC(=O)c1ccccn1)c1cc(OCCN(CC)CC)ccc1-2	> 30 µM (inactive)
COc1ccc(CSc2nnc(-c3ccccc3)o2)cc1	> 30 µM (inactive)
O=C1CCNc2cc3ccccc3cc21	28.2 µM
CC(=O)N1CCC(=O)c2cc3ccccc3cc21	4.65 µM
CCCNS(=O)(=O)c1cccc(C(=O)OCc2cc(=O)oc3cc(OC)ccc23)c1	6.81 µM
COc1cc(C(=O)NCCOc2cc(C)cc(C)c2)cc(OC)c1OC	24.5 µM
Cc1ccc(/C=N/NC(=O)C2COc3ccccc3O2)s1 (configuration not stated)	> 30 µM (inactive)
O=C(N/N=C/c1ccc(Cl)cc1)c1sccc1OCc1ccc(F)cc1	> 30 µM (inactive)
CCN(CC)CCC(=O)Nc1cccc2c1C(=O)c1ccccc1C2=O	14.7 µM
COc1cc(-c2nnc(SCC3(c4ccc(Br)cc4)OCCO3)o2)cc(OC)c1OC	> 30 µM (inactive)
O=C(Cc1ccccc1)c1nnc(-c2ccccc2)o1	> 30 µM (inactive)
c1ccc(CSc2nnc(-c3ccccc3)o2)cc1	20.9 µM
CCCOC(=O)c1[nH]c2c(c1C)C(=O)CC(c1cccs1)C2 (configuration not stated)	10 µM
COc1ccc(-c2nnc(SCc3ccccc3)o2)cc1	> 30 µM (inactive)
CC(=O)N[C@H]1[C@@H](O[C@@H]2OC(C[C@@H](O)C3O[C@@H](n4ccc(=O)[nH]c4=O)[C@H](O)[C@@H]3O)[C@H](O)[C@H](O)[C@H]2NC(=O)/C=C/CCCCCCCCCCC(C)C)O[C@H](CO)[C@@H](O)[C@@H]1O (some centres not stated)	13.1 µM
COC(=O)c1cn(C(=O)c2ccc(OC)cc2)c2ccccc12	12.5 µM

Same assay, conditions: 1 h, at 7.5 µM (top of the series)

Compound	luminescence change, positive = activation
CCn1c2ccccc2c2cc(NC(=O)c3cc(OC)c(OC)c(OC)c3)ccc21	-35.8% (inactive)
O=C1CCN(Cc2ccccc2)c2cc3ccccc3cc21	10.8% (inactive)
CCOc1ccc(S(=O)(=O)NCc2ccccn2)cc1NC(=O)c1ccccc1F	-35.8% (inactive)

Same assay, conditions: 1 h, at 30 µM (top of the series)

Compound	luminescence change, positive = activation
Brc1ccc(CSc2nnc(-c3ccccc3)o2)cc1	21.6% (inactive)
COc1ccccc1OCC(=O)NNC(=O)c1ccoc1C	-17.6% (inactive)
CCCCOc1ccccc1C1CC(=O)NC2=C1C(=O)CCC2 (configuration not stated)	-27% (inactive)
CCOC(=O)c1ccc(Oc2cc(C)nc(SC)n2)cc1	16.2% (inactive)
Cc1cc(=O)[nH]c(N/N=C/c2cc(C)n(CC(F)(F)F)c2C)n1	36% (inactive)
COc1cccc(N2CCN(C(=O)c3ccc(CS(=O)c4ccc(C)cc4)o3)CC2)c1 (configuration not stated)	8.11% (inactive)
Cc1cc(C)cc(C(=O)N2CC(=O)Nc3ccccc32)c1	-9.46% (inactive)
CCOc1ccc(NC(=O)c2cc(OC)nc3ccccc23)cc1	-0.676% (inactive)
C/C(=N\NC(=O)c1c([N+](=O)[O-])c(C)nn1C)c1ccc(NC(=O)C2CCCC2)cc1	-2.7% (inactive)
Cc1cccc(C)c1OCCNC(=O)C(=O)NCc1ccco1	-39.9% (inactive)
CCC1=Nc2cc(C(=O)NCCCOC)ccc2Sc2ccccc21	-11.5% (inactive)
Cc1cc(NC(=O)CSc2nc(-c3ccco3)cc(C(F)(F)F)n2)no1	-25.7% (inactive)
Nc1nc(=S)c2ncn([C@@H]3O[C@H](CO)[C@@H](O)[C@H]3O)c2[nH]1	97.3% (inactive)
Cc1ccc(Oc2ccc(S(=O)(=O)N3CCOCC3)cc2C(N)=O)c(-n2nc3ccccc3n2)c1	-22.3% (inactive)
COc1cc(Nc2c3c(nc4ccccc24)CCCC3)cc(OC)c1OC	-14.9% (inactive)
CC(=O)c1ccc(Oc2cc(C)nc(-n3nc(C)cc3C)n2)cc1	-10.8% (inactive)
Cc1ccc(C(=O)c2cc([N+](=O)[O-])ccc2N2CCOCC2)cc1C	19.8% (inactive)
COc1ccccc1CSc1nnc(-c2ccccc2)o1	19.8% (inactive)
CCOC(=O)COc1cccc2c(=O)n(CC(=O)NCc3ccccc3)ccc12	-4.73% (inactive)
COc1ccccc1-c1nnc(SCc2ccccc2)o1	-10.8% (inactive)
CCN(CC)CCCNc1nc2cc(OC)c(OC)cc2c2nc(-c3ccccc3)nn12	-10.1% (inactive)
Cc1cc(C)nc(/N=C(\N)Nc2ccc(OCc3ccccc3)cc2)n1	36.9% (inactive)
CC(=O)c1cccc(NC(=O)CSc2ncc(C(=O)Nc3ccccc3)c(=O)n2C)c1	-7.43% (inactive)
Cc1ccc(CCC(=O)Nc2ncc(Cc3cc(Cl)ccc3Cl)s2)o1	-24.3% (inactive)
COc1ccc(NC(=O)C(=O)c2cn(CC(=O)N3CCCC3)c3ccccc23)cc1	-20.3% (inactive)
Cc1[nH][nH]c(=O)c1C(c1ccc(-c2ccc(Cl)c(Cl)c2)o1)c1c(C)[nH][nH]c1=O	7.43% (inactive)
Cc1cnc(NC(=O)c2cc(S(=O)(=O)N(C)C)ccc2N2CCCC2)s1	8.11% (inactive)
